Experimental data as given in patent US20080102121A1 (Elan Pharma International Limited, priority 1998, published 2008).
Structures can show the parent of a compound that is named as a salt.

What was measured:
[1] = cited from earlier work
[2] = 10 mg oral dose, five adult males; cited from earlier work
[3] = in vivo; cited from earlier work
[4] = Hydrocodone simulations (one-compartment model); conditions: estimated from non-compartmental parameters
Method: Studies of hydrocodone formulations of the present invention were conducted to simulate the profiles associated with twice-daily administration hydrocodone for both single dose and steady state. […] Non-compartmental parameters were used to find estimates of the unit input response and a one-compartment model was assumed for all simulations.
For the absorption rate constant k01, several profiles were simulated using different estimates of k01.
Options 1 and 2 assumed a first order release and option 3 a zero-order release.

[5] = in vivo; cited from earlier work; remark: listed apart in the source

**Q.** Which results are given for “4-hydroxy-2-methyl-N-(5-methyl-2-thiazolyl)-2-H-1,2-benzothiazine-3-carboxamide 1,1-dioxide [Meloxicam]”?
**A.** time of second meloxicam concentration peak ([1]; fasted steady state conditions, post-dose): twelve to fourteen; bioavailability ([1]; single 30 mg oral dose compared to 30 mg intravenous bolus injection): 89%

**Q.** Which Cmax [2] does the source give for `COc1ccc2c3c1OC1C(=O)CCC4C(C2)N(C)CC[C@]314` (stereo partly drawn) [Hydrocodone, 4,5a-Epoxy-3-methoxy-1 7-methylmorphinan-6-one tartrate (1:1) hydrate (2:5)] here?
**A.** 23.6 ± 5.2 ng/mL

**Q.** And the Thalf [2]?
**A.** 3.8 ± 0.3 h

**Q.** And the Tmax [2]?
**A.** 1.3 ± 0.3 h

**Q.** What about the half life [3] of the same molecule?
**A.** 4 to 8 h

**Q.** And the K10 [4]?
**A.** 0.18

**Q.** And the V/f [4]?
**A.** 334.29 L

**Q.** With `CC(=O)Nc1ccc(O)cc1` [acetaminophen] as the molecule, how does the “doses reported as fatal” value [5] read?
**A.** 15,000-20,0000 milligrams a day
